Reference: US20180200257A1, “METHODS FOR THE TREATMENT OF INFLAMMATORY DISORDERS” (Galapagos NV, priority 2015, published 2018)

Assays:
[1] = tested on: Subjects With Active Crohn's Disease With Evidence of Mucosal Ulceration; experiment: Study 3 - Inflammatory Bowel Disease Questionnaire (IBDQ) scores; type: in vivo, human; conditions: 200 mg, LOCF
Excerpt: Double-Blind, Randomized, Placebo-Controlled, Multi-Centre Study to Investigate the Efficacy and Safety of Compound 1 in Subjects With Active Crohn's Disease With Evidence of Mucosal Ulceration. This is a double-blind, randomized, placebo-controlled, multi-centre Phase 2 study to investigate the efficacy and safety of Compound 1 administered once daily for the treatment of active CD with evidence of mucosal ulceration. The pharmacokinetics (including a PK substudy) and pharmacodynamics of Compound 1 and metabolite in CD will also be characterised. A total of 180 eligible subjects will be randomized to receive Compound 1 or placebo in addition to their stable background treatment (eg, corticosteroids, aminosalicylates, or CD-related antibiotics). The study will consist of 2 parts, with total treatment duration of 20 weeks. Randomization in Part 1 will be stratified according the subject's previous anti-TNF exposure/response, CRP level at Screening, and oral corticosteroid use at visit Day -1. After the first 10 weeks of treatment in Part 1, patients will be re-randomized for Part 2 as shown in the diagram below and will be stratified according to the subject's clinical response, previous anti-TNF exposure/response, and oral corticosteroid use at visit Day -1. [table] The Inflammatory Bowel Disease Questionnaire (IBDQ) is a questionnaire for health-related quality of life assessment in patients with inflammatory bowel diseases: ulcerative colitis and Crohn's disease. It consists of 32 questions divided into four groups: bowel symptoms (10 items), systemic symptoms (5 items), emotional function (12 items) and social function (5 items). Every question has graded responses from 1 to 7, and thus the total score is ranging from 32 to 224 with higher scores representing better quality of life. The IBDQ is a validated assessment tool that reflects important changes in the quality of life of patients with IBD (adapted from […] et al, Inflamm Bowel Dis, Volume 10, Number 3, May 2004)

[2] = tested on: Subjects With Active Crohn's Disease With Evidence of Mucosal Ulceration; experiment: Study 3 - Creatinine levels; type: in vivo, human; conditions: for Study 3 - Creatinine Mean CFB / Study 3 - Creatinine Mean percentage CFB: 10 weeks results, 200 mg q.d.
Excerpt: Double-Blind, Randomized, Placebo-Controlled, Multi-Centre Study to Investigate the Efficacy and Safety of Compound 1 in Subjects With Active Crohn's Disease With Evidence of Mucosal Ulceration. This is a double-blind, randomized, placebo-controlled, multi-centre Phase 2 study to investigate the efficacy and safety of Compound 1 administered once daily for the treatment of active CD with evidence of mucosal ulceration. The pharmacokinetics (including a PK substudy) and pharmacodynamics of Compound 1 and metabolite in CD will also be characterised. A total of 180 eligible subjects will be randomized to receive Compound 1 or placebo in addition to their stable background treatment (eg, corticosteroids, aminosalicylates, or CD-related antibiotics). The study will consist of 2 parts, with total treatment duration of 20 weeks. Randomization in Part 1 will be stratified according the subject's previous anti-TNF exposure/response, CRP level at Screening, and oral corticosteroid use at visit Day −1. After the first 10 weeks of treatment in Part 1, patients will be re-randomized for Part 2 as shown in the diagram below and will be stratified according to the subject's clinical response, previous anti-TNF exposure/response, and oral corticosteroid use at visit Day -1. [table] Creatinine levels determination is available at Quest Diagnostics, Clinical Trials, Quest House, 125-135 Staines Road, Hounslow, Middlesex, TW3 3JB, United Kingdom under Catalogue n# 82565. For Study 3, the data are obtained at BARC Europe, 3B,Industrie Park, Zwijnaarde, B-9052 Ghent, Belgium. The Enzymatic method is based on the determination of sarcosine after conversion of creatinine with the aid of creatininase, creatinase, and sarcosine oxidase. The liberated hydrogen peroxide reacts with 4-aminophenazone and HTIB to form a quinone imine chromogen. The reaction is catalyzed by peroxidase. The color intensity is directly proportional to concentration of creatinine present and can be measured photometrically.

[3] = 200 mg q.d. continued to week 20 (N = 77), week 0
[4] = 200 mg q.d. continued to week 20 (N = 77), week 2
[5] = 200 mg q.d. continued to week 20 (N = 77), week 4
[6] = 200 mg q.d. continued to week 20 (N = 77), week 6
[7] = 200 mg q.d. continued to week 20 (N = 77), week 10
[8] = 200 mg q.d. continued to week 20 (N = 77), week 12
[9] = 200 mg q.d. continued to week 20 (N = 77), week 16
[10] = 200 mg q.d. continued to week 20 (N = 77), week 20
[11] = 200 mg q.d. week 0 to 10, to 100 mg q.d. week 10 to 20 (N = 30), week 0
[12] = 200 mg q.d. week 0 to 10, to 100 mg q.d. week 10 to 20 (N = 30), week 2
[13] = 200 mg q.d. week 0 to 10, to 100 mg q.d. week 10 to 20 (N = 30), week 4
[14] = 200 mg q.d. week 0 to 10, to 100 mg q.d. week 10 to 20 (N = 30), week 6
[15] = 200 mg q.d. week 0 to 10, to 100 mg q.d. week 10 to 20 (N = 30), week 10
[16] = 200 mg q.d. week 0 to 10, to 100 mg q.d. week 10 to 20 (N = 30), week 12
[17] = 200 mg q.d. week 0 to 10, to 100 mg q.d. week 10 to 20 (N = 30), week 16
[18] = 200 mg q.d. week 0 to 10, to 100 mg q.d. week 10 to 20 (N = 30), week 20
[19] = 200 mg q.d. week 0 to 10, to placebo week 10 to 20 (N = 23), week 0
[20] = 200 mg q.d. week 0 to 10, to placebo week 10 to 20 (N = 23), week 2
[21] = 200 mg q.d. week 0 to 10, to placebo week 10 to 20 (N = 23), week 4
[22] = 200 mg q.d. week 0 to 10, to placebo week 10 to 20 (N = 23), week 6
[23] = 200 mg q.d. week 0 to 10, to placebo week 10 to 20 (N = 23), week 10
[24] = 200 mg q.d. week 0 to 10, to placebo week 10 to 20 (N = 23), week 12
[25] = 200 mg q.d. week 0 to 10, to placebo week 10 to 20 (N = 23), week 16
[26] = 200 mg q.d. week 0 to 10, to placebo week 10 to 20 (N = 23), week 20
[27] = placebo week 0 to 10, to 100 mg q.d. week 10 to 20 (N = 22), week 12
[28] = placebo week 0 to 10, to 100 mg q.d. week 10 to 20 (N = 22), week 16
[29] = placebo week 0 to 10, to 100 mg q.d. week 10 to 20 (N = 22), week 20

O=C(Nc1nc2cccc(-c3ccc(CN4CCS(=O)(=O)CC4)cc3)n2n1)C1CC1 [Compound 1, cyclopropanecarboxylic acid {5-[4-(1,1-dioxo-thiomorpholin-4-ylmethyl)-phenyl]-[1,2,4]triazolo[1,5-a]pyridin-2-yl}-amide]
IBDQ Bowel symptoms ([1]; Baseline): 41.07 | IBDQ Emotional status ([1]; Baseline): 45.91 | IBDQ Social functioning ([1]; Baseline): 19.26 | IBDQ Systemic symptoms ([1]; Baseline): 16.32 | IBDQ mean CFB ([1]; Baseline): 123.00 | IBDQ Bowel symptoms ([1]; week 10): 9.96 | IBDQ Emotional status ([1]; week 10): 12.07 | IBDQ Social functioning ([1]; week 10): 6.19 | IBDQ Systemic symptoms ([1]; week 10): 5.73 | IBDQ mean CFB ([1]; week 10): 33.82 | Creatinine Mean CFB [2, 3]: 0.0 µmol/L | Creatinine Mean percentage CFB [2, 3]: 0.0% | Creatinine Mean CFB [2, 4]: 2.22 µmol/L | Creatinine Mean percentage CFB [2, 4]: 4.13% | Creatinine Mean CFB [2, 5]: 3.93 µmol/L | Creatinine Mean percentage CFB [2, 5]: 6.08% | Creatinine Mean CFB [2, 6]: 2.51 µmol/L | Creatinine Mean percentage CFB [2, 6]: 4.44% | Creatinine Mean CFB [2, 7]: 6.00 µmol/L | Creatinine Mean percentage CFB [2, 7]: 9.34% | Creatinine Mean CFB [2, 8]: 4.02 µmol/L | Creatinine Mean percentage CFB [2, 8]: 7.10% | Creatinine Mean CFB [2, 9]: 1.81 µmol/L | Creatinine Mean percentage CFB [2, 9]: 3.62% | Creatinine Mean CFB [2, 10]: 3.20 µmol/L | Creatinine Mean percentage CFB [2, 10]: 5.43% | Creatinine Mean CFB [2, 11]: 0.0 µmol/L | Creatinine Mean percentage CFB [2, 11]: 0.0% | Creatinine Mean CFB [2, 12]: 3.36 µmol/L | Creatinine Mean percentage CFB [2, 12]: 5.77% | Creatinine Mean CFB [2, 13]: 4.98 µmol/L | Creatinine Mean percentage CFB [2, 13]: 8.03% | Creatinine Mean CFB [2, 14]: 4.00 µmol/L | Creatinine Mean percentage CFB [2, 14]: 6.37% | Creatinine Mean CFB [2, 15]: 6.48 µmol/L | Creatinine Mean percentage CFB [2, 15]: 11.55% | Creatinine Mean CFB [2, 16]: 2.92 µmol/L | Creatinine Mean percentage CFB [2, 16]: 6.01% | Creatinine Mean CFB [2, 17]: 4.89 µmol/L | Creatinine Mean percentage CFB [2, 17]: 8.86% | Creatinine Mean CFB [2, 18]: 3.43 µmol/L | Creatinine Mean percentage CFB [2, 18]: 6.19% | Creatinine Mean CFB [2, 19]: 0.0 µmol/L | Creatinine Mean percentage CFB [2, 19]: 0.0% | Creatinine Mean CFB [2, 20]: 1.95 µmol/L | Creatinine Mean percentage CFB [2, 20]: 3.55% | Creatinine Mean CFB [2, 21]: 3.83 µmol/L | Creatinine Mean percentage CFB [2, 21]: 6.09% | Creatinine Mean CFB [2, 22]: 2.15 µmol/L | Creatinine Mean percentage CFB [2, 22]: 3.92% | Creatinine Mean CFB [2, 23]: 5.88 µmol/L | Creatinine Mean percentage CFB [2, 23]: 10.23% | Creatinine Mean CFB [2, 24]: 1.84 µmol/L | Creatinine Mean percentage CFB [2, 24]: 3.14% | Creatinine Mean CFB [2, 25]: 0.47 µmol/L | Creatinine Mean percentage CFB [2, 25]: 1.93% | Creatinine Mean CFB [2, 26]: -0.26 µmol/L | Creatinine Mean percentage CFB [2, 26]: 0.68% | Study 3 - Creatinine Mean CFB ([2]; week 2): 2.44 µM | Study 3 - Creatinine Mean percentage CFB ([2]; week 2): 4.41% | Study 3 - Creatinine Mean CFB ([2]; week 4): 4.16 µM | Study 3 - Creatinine Mean percentage CFB ([2]; week 4): 6.55% | Study 3 - Creatinine Mean CFB ([2]; week 6): 2.81 µM | Study 3 - Creatinine Mean percentage CFB ([2]; week 6): 4.82% | Study 3 - Creatinine Mean CFB ([2]; week 10): 6.08 µM | Study 3 - Creatinine Mean percentage CFB ([2]; week 10): 10.05% | Creatinine Mean CFB [2, 27]: 3.09 µmol/L | Creatinine Mean percentage CFB [2, 27]: 4.87% | Creatinine Mean CFB [2, 28]: 4.33 µmol/L | Creatinine Mean percentage CFB [2, 28]: 6.52% | Creatinine Mean CFB [2, 29]: 3.11 µmol/L | Creatinine Mean percentage CFB [2, 29]: 4.31%
